Experimental data reported in patent publication US7230011B2, “Benzenesulfonic acid indol-5-yl esters as antagonists of the 5ht6 receptor” (Eli Lilly and Company, priority 2002, dated 2007).
Read-outs that look alike come from different tables or passages of the source.

Assays:
5-HT6 receptor = 5-HT6 receptor (Homo sapiens, UniProt P50406); conditions: 5-HT6 receptor, cited from earlier work
5-HT2A receptor = 5-HT2A receptor (Homo sapiens, UniProt P28223); conditions: 5-HT6 versus 5-HT2A; cited from earlier work
[1] = cited from earlier work; for pharmacokinetics: in words
[2] = system: glutamate release in the prefrontal cortex; conditions: 10 mg/kg, sc; cited from earlier work
yawning behavior = conditions: in vivo; cited from earlier work
Morris water maze = conditions: in vivo; cited from earlier work
aged rats = conditions: cited from earlier work
stretching behavior = conditions: cited from earlier work; for block of stretching behavior induced by Ro 04-6790: methyl-scopolamine at doses known to be peripherally selective
Male Sprague-Dawley rats = conditions: s.c., six-hour delay
object recognition test = conditions: in vivo; cited from earlier work
[3] = system: rats with unilateral nigrostriatal 6-OH-DA lesions; conditions: cited from earlier work

5-HT6 receptor, sequence (P50406 whole entry): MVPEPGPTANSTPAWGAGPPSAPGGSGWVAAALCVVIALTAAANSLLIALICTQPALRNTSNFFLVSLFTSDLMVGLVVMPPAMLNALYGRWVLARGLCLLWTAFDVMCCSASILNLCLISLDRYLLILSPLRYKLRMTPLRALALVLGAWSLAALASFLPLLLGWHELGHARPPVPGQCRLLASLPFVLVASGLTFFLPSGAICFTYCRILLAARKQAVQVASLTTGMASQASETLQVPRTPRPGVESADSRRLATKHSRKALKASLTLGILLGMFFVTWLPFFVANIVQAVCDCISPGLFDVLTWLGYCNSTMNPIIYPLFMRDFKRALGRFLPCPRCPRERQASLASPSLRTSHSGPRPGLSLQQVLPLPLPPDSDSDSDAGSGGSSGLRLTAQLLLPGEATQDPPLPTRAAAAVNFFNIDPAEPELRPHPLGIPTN
5-HT2A receptor, sequence (P28223 whole entry): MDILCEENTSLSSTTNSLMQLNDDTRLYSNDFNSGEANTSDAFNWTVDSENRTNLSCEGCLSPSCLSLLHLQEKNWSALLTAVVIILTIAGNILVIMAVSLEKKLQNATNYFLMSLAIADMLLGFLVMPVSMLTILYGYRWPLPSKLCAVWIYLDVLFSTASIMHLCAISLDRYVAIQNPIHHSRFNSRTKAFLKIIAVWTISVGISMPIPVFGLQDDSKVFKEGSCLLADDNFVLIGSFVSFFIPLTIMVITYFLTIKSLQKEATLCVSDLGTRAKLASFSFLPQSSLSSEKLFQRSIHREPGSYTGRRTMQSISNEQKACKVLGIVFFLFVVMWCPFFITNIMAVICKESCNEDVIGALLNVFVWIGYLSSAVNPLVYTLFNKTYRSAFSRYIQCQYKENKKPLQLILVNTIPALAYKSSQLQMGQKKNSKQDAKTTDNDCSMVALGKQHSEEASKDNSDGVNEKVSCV

Compound: CCc1[nH]c2ccc(OC)cc2c1CCN(C)C [N,N-dimethyl-2-ethyl-5-methoxytryptamine]
- Ki (5-HT6 receptor): 81 nM
- selectivity versus the 5-HT2A receptor (5-HT2A receptor): 3.5 fold

Compound: CNc1cc(NS(=O)(=O)c2ccc(N)cc2)cc(NC)n1 [Ro 63-0563]
- pharmacokinetics [1]: poor pharmacokinetics
- Ki (5-HT6 receptor; read-out: Ki): 12 nM

Compound: COc1ccc(NS(=O)(=O)c2sc3ccc(Cl)cc3c2C)cc1N1CCNCC1 [SB-271,046]
- bioavailable ([1]; in vivo): 80%
- glutamate release in the prefrontal cortex [2]: increases glutamate release
- yawning behavior induced by physostigmine (yawning behavior): potentiated the yawning behavior
- performance in the Morris water maze (Morris water maze): improved performance
- spatial alternation operant behavior test (aged rats): improvements

Compound: CN1[C@@H]2C[C@@H](OC(=O)[C@H](CO)c3ccccc3)C[C@H]1[C@@H]1O[C@@H]12 [Scopolamine, scopolamine]
- block of stretching behavior induced by Ro 04-6790 (stretching behavior): blocked

Compound: Nc1c2c(nc3ccccc13)CCCC2 [Tacrine, tacrine]
- retention (Male Sprague-Dawley rats; 3 mg/kg): not
- retention (Male Sprague-Dawley rats; 10 mg/kg): significantly improved retention

Compound: CN1[C@@H]2CC[C@H]1C[C@@H](OC(=O)C(CO)c1ccccc1)C2 (some centres unmarked) [atropine]
- block of yawning and stretching behavior induced by antisense oligonucleotides targeting the 5-HT6 receptor (stretching behavior; antisense icv to rats): blocked
- block of stretching behavior induced by Ro 04-6790 (stretching behavior): blocked

Compound: Ro 04-6790
- pharmacokinetics [1]: poor pharmacokinetics
- Ki (5-HT6 receptor; read-out: Ki): 50 nM
- scopolamine induced performance deficits in the object recognition test (object recognition test): reversed scopolamine induced performance deficits
- stretching behavior (stretching behavior; rat, in vivo): induced stretching behavior in a dose-dependent manner
- rotational behavior induced by L-DOPA or amphetamine ([3]; rat, in vivo): did not block
- rotation behavior induced by scopolamine ([3]; rats, unilateral nigrostriatal 6-OH-DA lesions): block the rotation behavior
